# Results reported in the supplement of paper PMC12406974.
# Experiments:
# Assay in all cases: maximum observed lethal fraction; higher = more cell death
# [1] = tested on: U2OS BCL2L12-KO
# [2] = tested on: U2OS PTBP1-KO
# [3] = tested on: U2OS BAX/BAK1 DKO
# [4] = tested on: U2OS
# 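Further: FLICK assay: SYTOX Green fluorescence of dead cells tracked over time after drugging in 96-well plates, with total cell counts taken from Triton X-100 lysed wells.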
SMILES,maximum observed lethal fraction ([1]; 0.0316 µM),maximum observed lethal fraction ([1]; 0.1 µM),maximum observed lethal fraction ([1]; 0.316 µM),maximum observed lethal fraction ([1]; 1 µM),maximum observed lethal fraction ([1]; 3.16 µM),maximum observed lethal fraction ([1]; 10 µM),maximum observed lethal fraction ([1]; 31.6 µM),maximum observed lethal fraction ([2]; 0.0316 µM),maximum observed lethal fraction ([2]; 0.1 µM),maximum observed lethal fraction ([2]; 0.316 µM),maximum observed lethal fraction ([2]; 1 µM),maximum observed lethal fraction ([2]; 3.16 µM),maximum observed lethal fraction ([2]; 10 µM),maximum observed lethal fraction ([2]; 31.6 µM),maximum observed lethal fraction ([3]; 0.0316 µM),maximum observed lethal fraction ([3]; 0.1 µM),maximum observed lethal fraction ([3]; 0.316 µM),maximum observed lethal fraction ([3]; 1 µM),maximum observed lethal fraction ([3]; 3.16 µM),maximum observed lethal fraction ([3]; 10 µM),maximum observed lethal fraction ([3]; 31.6 µM),maximum observed lethal fraction ([4]; 0.0316 µM),maximum observed lethal fraction ([4]; 0.1 µM),maximum observed lethal fraction ([4]; 0.316 µM),maximum observed lethal fraction ([4]; 1 µM),maximum observed lethal fraction ([4]; 3.16 µM),maximum observed lethal fraction ([4]; 10 µM),maximum observed lethal fraction ([4]; 31.6 µM),maximum observed lethal fraction ([1]; 0.01 µM),maximum observed lethal fraction ([2]; 0.01 µM),maximum observed lethal fraction ([3]; 0.01 µM),maximum observed lethal fraction ([4]; 0.01 µM),maximum observed lethal fraction ([1]; 100 µM),maximum observed lethal fraction ([1]; 316 µM),maximum observed lethal fraction ([2]; 100 µM),maximum observed lethal fraction ([2]; 316 µM),maximum observed lethal fraction ([3]; 100 µM),maximum observed lethal fraction ([3]; 316 µM),maximum observed lethal fraction ([4]; 100 µM),maximum observed lethal fraction ([4]; 316 µM)
C[C@H]1CCC/C=C/[C@@H]2C[C@H](O)C[C@H]2[C@H](O)/C=C/C(=O)O1 [Brefeldin A],0.218,0.387,0.628,0.709,0.77,0.793,0.86,0.168,0.257,0.333,0.321,0.29,0.411,0.389,0.0711,0.075,0.0688,0.0708,0.0703,0.0786,0.0716,0.0868,0.38,0.634,0.701,0.762,0.775,0.818,–,–,–,–,–,–,–,–,–,–,–,–
Nc1cc(C(F)(F)F)c(-c2cc(N3CCOCC3)nc(N3CCOCC3)n2)cn1 [Buparlisib],0.0818,0.0866,0.0955,0.176,0.287,0.349,0.374,0.0937,0.0916,0.0993,0.125,0.231,0.304,0.326,0.0655,0.0661,0.0716,0.091,0.0979,0.11,0.116,0.0663,0.0713,0.0748,0.109,0.275,0.463,0.513,–,–,–,–,–,–,–,–,–,–,–,–
CC[C@@]1(O)C(=O)OCc2c1cc1n(c2=O)Cc2cc3ccccc3nc2-1 [Camptothecin],0.083,0.0852,0.101,0.307,0.664,0.8,–,0.0841,0.0812,0.0849,0.107,0.295,0.328,–,0.0659,0.0708,0.0816,0.0795,0.0879,0.0915,–,0.0661,0.0732,0.0916,0.379,0.625,0.786,–,0.0758,0.0712,0.0607,0.0607,–,–,–,–,–,–,–,–
NC1(C(=O)N[C@@H](CCO)c2ccc(Cl)cc2)CCN(c2nc[nH]c3nccc2-3)CC1 [Capivasertib],0.0788,0.0816,0.0788,0.0844,0.0929,0.108,0.236,0.0937,0.0911,0.0962,0.0997,0.111,0.132,0.22,0.0665,0.0661,0.0653,0.0697,0.074,0.078,0.0858,0.0687,0.066,0.0671,0.0702,0.0868,0.109,0.201,–,–,–,–,–,–,–,–,–,–,–,–
O=C(O)C1(C(=O)O)CCC1.[NH2-].[NH2-].[Pt+2] [Carboplatin],–,–,0.0652,0.0616,0.0672,0.0691,0.0714,–,–,0.0634,0.0611,0.0647,0.0661,0.0674,–,–,0.0602,0.0593,0.0612,0.0614,0.0671,–,–,0.0493,0.052,0.0533,0.0546,0.056,–,–,–,–,0.0762,0.342,0.0762,0.54,0.0722,0.0825,0.0693,0.517
Nc1ncnc2c1ncn2[C@@H]1O[C@H](CO)C[C@H]1O [Cordycepin],–,0.0657,0.0642,0.064,0.068,0.0693,0.0825,–,0.068,0.0684,0.0659,0.0646,0.0665,0.0847,–,0.0507,0.0537,0.0531,0.0551,0.0542,0.0698,–,0.0524,0.0543,0.0522,0.0545,0.054,0.0774,–,–,–,–,0.616,–,0.517,–,0.072,–,0.451,–
C#C[C@@]1(O)[C@@H](CO)O[C@@H](n2ccc(N)nc2=O)[C@@H]1O [Ethynylcytidine],0.0771,0.0843,0.0999,0.323,0.706,0.715,–,0.0709,0.0864,0.0904,0.101,0.329,0.244,–,0.059,0.0745,0.0801,0.0819,0.0878,0.0906,–,0.0612,0.071,0.0947,0.523,0.868,0.787,–,0.068,0.0691,0.0536,0.0536,–,–,–,–,–,–,–,–
COc1cc([C@@H]2c3cc4c(cc3[C@@H](O[C@@H]3O[C@@H]5CO[C@@H](C)O[C@H]5[C@H](O)[C@H]3O)[C@H]3COC(=O)[C@H]23)OCO4)cc(OC)c1O [Etoposide],0.0627,0.0728,0.083,0.0936,0.0967,0.341,0.629,0.0736,0.0782,0.0848,0.0897,0.0981,0.384,0.649,0.055,0.0596,0.0706,0.0746,0.0695,0.0871,0.0793,0.0568,0.0636,0.0687,0.0712,0.0784,0.31,0.601,–,–,–,–,–,–,–,–,–,–,–,–
